These results are taken from PubChem BioAssay AID1259408 (Genetic Toxicology Data Bank (GENE-TOX), 2018).

Active and inactive are the calls of the source. The rule behind the calls is not given here.

The data set relates to GENE-TOX genotoxicity assays, various organisms and cells. The experiment in a line: GENE-TOX mutagenicity studies. The settings on record: for call: Assay Type: In vivo carcinogenicity studies.
The mark [1] stands for this setting: Species/Cell Type: Arabidopsis species, Assay Type: Gene mutation, Assay Code: ARM+D, Dose Response: With dose response, Evaluation Type: Evaluation A (Pre-1980).
The mark [2] stands for this setting: Species/Cell Type: Drosophila melanogaster, Assay Type: Sex-linked recessive lethal gene mutation, Assay Code: SRL+, Evaluation Type: Evaluation A (Pre-1980).
Setting [3] is: Species/Cell Type: Escherichia coli polA (W3119 vs P3478), Assay Type: Rec-assay, DNA effects (bacterial DNA repair), Assay Code: RE1+, Evaluation Type: Evaluation A (Pre-1980).
[4] abbreviates: Species/Cell Type: Salmonella typhimurium (one or more of the five standard strains: TA98, TA100, TA1535, TA1537, and TA1538), Assay Type: Histidine reverse gene mutation, Ames assay, Assay Code: SAL+, Evaluation Type: Evaluation A (Pre-1980).
Where [5] appears, read: Species/Cell Type: Nonhuman, Assay Code: CCG+, Evaluation Type: Evaluation A (Pre-1980).
Setting [6] is: Species/Cell Type: Nonhuman, Assay Type: Sister-chromatid exchange (SCE) in vivo, Assay Code: SC3+, Evaluation Type: Evaluation B (Post-1980).
Setting [7] is: Species/Cell Type: Mammalian polychromatic erythrocytes, Assay Type: Micronucleus test, chromosome aberrations, Assay Code: MNT-, Evaluation Type: Evaluation B (Post-1980).

As to `CCOC(=O)N(CC)N=O`, the mutagenic call reads like this: under setting [1], “active; positive”; (Species/Cell Type: Drosophila melanogaster, Assay Type: Aneuploidy, partial sex chromosome loss, chromosome aberrations, Assay Code: DAP+MDAC+M, Dose Response: With dose response, Evaluation Type: Evaluation A (Pre-1980)) “active; positive”; (Species/Cell Type: Drosophila melanogaster, Assay Type: Aneuploidy, sex chromosome gain, chromosome aberrations, Assay Code: DAGT, Evaluation Type: Evaluation A (Pre-1980)) “no conclusion”; under setting [2], “active; positive”; under setting [3], “active; positive”; (Species/Cell Type: Hordeum vulgare (barley), Assay Type: Gene mutation, Assay Code: HOM+D, Dose Response: With dose response, Evaluation Type: Evaluation A (Pre-1980)) “active; positive”. Moreover, the mutagenic call (Species/Cell Type: Neurospora crassa, Assay Type: Reverse gene mutation, Assay Code: NER+, Evaluation Type: Evaluation A (Pre-1980)) was “active; positive”; the mutagenic call (Species/Cell Type: Saccharomyces cerevisiae, Assay Type: Mitotic recombination or gene conversion, Assay Code: YEC+, Evaluation Type: Evaluation A (Pre-1980)) was “active; positive”; the mutagenic call under setting [4] was “active; positive”; the mutagenic call (Species/Cell Type: Schizosaccharomyces pombe, Assay Type: Reverse gene mutation, Assay Code: YEZ+, Evaluation Type: Evaluation A (Pre-1980)) was “active; positive”.
In the case of `[Cl][Al]([Cl])[Cl]`, the mutagenic call (Species/Cell Type: Bacillus subtilis (H17 vs M45), Assay Type: Rec-assay, spot test, DNA effects (bacterial DNA repair), Assay Code: REW-, Evaluation Type: Evaluation A (Pre-1980)) was “inactive; negative”; the mutagenic call (Species/Cell Type: Nonhuman bone marrow, Assay Type: Chromosome aberrations, in vivo, Assay Code: CY#+, Evaluation Type: Evaluation A (Pre-1980)) was “active; positive”; the mutagenic call (Species/Cell Type: Syrian hamster embryo (SA7/SHE) cells, Assay Type: Cell transformation, viral enhanced, Assay Code: CT7-, Evaluation Type: Evaluation A (Pre-1980)) was “inactive; negative”.
For `CN(N=O)C(=O)N[C@@H](C=O)[C@@H](O)[C@H](O)[C@H](O)CO`, the mutagenic call by setting is: under setting [1], “active; positive”; (Species/Cell Type: Chinese hamster lung (V79) cells, Assay Type: Forward gene mutation at the HPRT or ouabain locus, Assay Code: V79+, Evaluation Type: Evaluation A (Pre-1980)) “active; positive”; under setting [3], “active; positive”; under setting [6], “active; positive”; under setting [4], “active; positive”; (Species/Cell Type: Salmonella typhimurium, Assay Type: Forward and reverse gene mutation, body fluid assay, Assay Code: BFU+, Evaluation Type: Evaluation A (Pre-1980)) “active; positive”. Also, the mutagenic call (Species/Cell Type: Salmonella typhimurium, Assay Type: Forward and reverse gene mutation, host-mediated assay, Assay Code: HMA+, Evaluation Type: Evaluation A (Pre-1980)) is “active; positive”. Under setting [5], the call was “active; positive”.
As to `CS(=O)(=O)OCCCCO`, the mutagenic call under setting [2] is “active; positive”.
For `Cc1c2ccccc2cc2c3c(ccc12)C=C[C@@H](O)[C@@H]3O`, the mutagenic call reads like this: (Species/Cell Type: Mouse prostate cells, Assay Type: Cell transformation, Assay Code: CTM+, Evaluation Type: Evaluation A (Pre-1980)) “active; positive”; (Species/Cell Type: Nonhuman, Assay Type: Sister-chromatid exchange (SCE) in vitro, Assay Code: SC2+, Evaluation Type: Evaluation A (Pre-1980)) “active; positive”. Also, the call (Species/Cell Type: Nonhuman, Assay Code: CCGT, Evaluation Type: Evaluation A (Pre-1980)) is “no conclusion”.
Regarding `CCOC(C)=O`, the mutagenic call by setting is: (Species/Cell Type: Bacillus subtilis (H17 vs M45), Assay Type: Rec-assay, spot test, DNA effects (bacterial DNA repair), Assay Code: REWT, Evaluation Type: Evaluation A (Pre-1980)) “no conclusion”; under setting [7], “inactive; negative”.
Take `CC(C)=CC1C(C(=O)OCc2cccc(Oc3ccccc3)c2)C1(C)C` (centres undefined): the mutagenic call (Species/Cell Type: Human diploid fibroblasts, Assay Type: Unscheduled DNA synthesis (UDS) in vitro, DNA effects, Assay Code: UDH-, Evaluation Type: Evaluation A (Pre-1980)) was “inactive; negative” and the mutagenic call (Species/Cell Type: Saccharomyces cerevisiae, Assay Type: Mitotic recombination or gene conversion, Assay Code: YEH-, Evaluation Type: Evaluation A (Pre-1980)) is “inactive; negative”.
As for `CCOC(=O)CNC(=O)C=[N+]=[N-]`, the mutagenic call under setting [4] is “active; positive”.
As for `C[C@@H]1O[C@@H](OC[C@H]2O[C@@H](Oc3c(-c4ccc(OCCO)c(OCCO)c4)oc4cc(OCCO)cc(O)c4c3=O)[C@H](O)[C@@H](O)[C@@H]2O)[C@H](O)[C@H](O)[C@H]1O`, the mutagenic call under setting [7] is “inactive; negative”.
In the case of `S=C1SSC2=NCCN12`, the mutagenic call reads like this: (Species/Cell Type: Bacillus subtilis (H17 vs M45), Assay Type: Rec-assay, spot test, DNA effects (bacterial DNA repair), Assay Code: REW+, Evaluation Type: Evaluation A (Pre-1980)) “active; positive”; (Species/Cell Type: Human lymphocytes, Assay Type: Sister-chromatid exchange (SCE) in vitro, Assay Code: SCL+, Evaluation Type: Evaluation B (Post-1980)) “active; positive”; (Species/Cell Type: Human, Assay Type: Sister-chromatid exchange (SCE) in vitro, Assay Code: SC1+, Evaluation Type: Evaluation B (Post-1980)) “active; positive”.
As for `Cc1cc2ccccc2c2ccc3ccc(F)cc3c12`, the mutagenic call (Species/Cell Type: Salmonella typhimurium (one or more of the five standard strains: TA98, TA100, TA1535, TA1537, and TA1538), Assay Type: Histidine reverse gene mutation, Ames assay, Assay Code: SALT, Evaluation Type: Evaluation A (Pre-1980)) is on record as “no conclusion”.
As for `CO[C@@H]1[C@@H](OC(N)=O)[C@@H](O)[C@H](Oc2ccc3c(O)c(NC(=O)c4ccc(O)c(CC=C(C)C)c4)c(=O)oc3c2C)OC1(C)C`, the mutagenic call (Species/Cell Type: Nonhuman, Assay Type: Sister-chromatid exchange (SCE) in vitro, Assay Code: SC2+, Evaluation Type: Evaluation B (Post-1980)) is “active; positive”.
With `CCC(=O)O`, under setting [7], the mutagenic call is “inactive; negative”.
On to `O=S(=O)(O)c1ccc2c(N=Nc3ccc(S(=O)(=O)O)c4ccccc34)c(O)ccc2c1`, for which the mutagenic call (Species/Cell Type: Saccharomyces cerevisiae, Assay Type: Mitotic recombination or gene conversion, Assay Code: YEC-, Evaluation Type: Evaluation A (Pre-1980)) is “inactive; negative”.
With `COc1nc(OC)nc(N2CC2)n1`, the mutagenic call (Species/Cell Type: Allium cepa, Assay Type: Chromosome aberrations, Assay Code: ALC+, Evaluation Type: Evaluation A (Pre-1980)) was “active; positive”.
As to `Nc1ccc(-c2ccc(N)cc2)cc1`, the mutagenic call by setting is: (Species/Cell Type: Drosophila melanogaster, Assay Type: Sex-linked recessive lethal gene mutation, Assay Code: SRL-, Evaluation Type: Evaluation A (Pre-1980)) “inactive; negative”; (Species/Cell Type: Escherichia coli polA (W3119 vs P3478), Assay Type: Rec-assay, DNA effects (bacterial DNA repair), Assay Code: RE1T, Evaluation Type: Evaluation A (Pre-1980)) “no conclusion”; (Species/Cell Type: Fischer rat embryo (RLV/1706) cells, Assay Type: Cell transformation, viral enhanced, Assay Code: CTR+, Evaluation Type: Evaluation A (Pre-1980)) “active; positive”; (Species/Cell Type: Human diploid fibroblasts, Assay Type: Unscheduled DNA synthesis (UDS) in vitro, DNA effects, Assay Code: UDHT, Evaluation Type: Evaluation A (Pre-1980)) “no conclusion”; (Species/Cell Type: Human, Assay Type: Sister-chromatid exchange (SCE) in vitro, Assay Code: SC1+D*, Activation: With metabolic activation, Dose Response: With dose response, Evaluation Type: Evaluation B (Post-1980)) “active; positive”; (Species/Cell Type: Mammalian polychromatic erythrocytes, Assay Type: Micronucleus test, chromosome aberrations, Assay Code: MNT+, Evaluation Type: Evaluation A (Pre-1980)) “active; positive”. Moreover, the mutagenic call reads like this: (Species/Cell Type: Mouse embryo (AKR/ME) cells, Assay Type: Cell transformation, Assay Code: CTK+, Evaluation Type: Evaluation A (Pre-1980)) “active; positive”; (Species/Cell Type: Mouse, Sex: Male, Assay Type: Sperm morphology, Assay Code: SPI-, Evaluation Type: Evaluation A (Pre-1980)) “inactive; negative”; (Species/Cell Type: Nonhuman, Assay Type: Sister-chromatid exchange (SCE) in vitro, Assay Code: SC2+D*, Activation: With metabolic activation, Dose Response: With dose response, Evaluation Type: Evaluation B (Post-1980)) “active; positive”; under setting [6], “active; positive”; (Species/Cell Type: Rat primary hepatocytes, Assay Type: Unscheduled DNA synthesis (UDS) in vitro, DNA effects, Assay Code: UDP+, Evaluation Type: Evaluation A (Pre-1980)) “active; positive”; (Species/Cell Type: Salmonella typhimurium (one or more of the five standard strains: TA98, TA100, TA1535, TA1537, and TA1538), Assay Type: Histidine reverse gene mutation, Ames assay, Assay Code: SAL+*, Activation: With metabolic activation, Evaluation Type: Evaluation A (Pre-1980)) “active; positive”. The mutagenic call runs as follows: (Species/Cell Type: Syrian hamster embryo (SA7/SHE) cells, Assay Type: Cell transformation, viral enhanced, Assay Code: CT7+, Evaluation Type: Evaluation A (Pre-1980)) “active; positive”; (Species/Cell Type: Syrian hamster embryo (SHE) cells, Assay Type: Cell transformation, clonal assay, Assay Code: CTC+, Evaluation Type: Evaluation A (Pre-1980)) “active; positive”; (Species/Cell Type: Tradescantia species, Assay Type: Gene mutation, Assay Code: TRM+D, Dose Response: With dose response, Evaluation Type: Evaluation A (Pre-1980)) “active; positive”. In addition, the call under setting [5] is “active; positive”.
With `O=C(O)c1cc(I)cc(I)c1I`, under “Species/Cell Type: Hordeum vulgare (barley), Assay Type: Chromosome aberrations, Assay Code: HOC+, Evaluation Type: Evaluation A (Pre-1980)”, the mutagenic call was “active; positive”.
For `C/C=C1/C[C@@H](C)[C@@](C)(O)C(=O)OCC2=CCN3CC[C@@H](OC1=O)[C@@H]23`, under setting [2], the mutagenic call is “active; positive”.
On to `CCCCCCCCO`, for which, under “Species/Cell Type: Nonhuman, Assay Type: Sister-chromatid exchange (SCE) in vitro, Assay Code: SC2T, Evaluation Type: Evaluation B (Post-1980)”, the mutagenic call was “no conclusion”.
As to `CCC(C)I` (centres undefined), the mutagenic call under setting [3] was “active; positive”.
